Results taken from publication PMC10303012, “Volatile Short-Chain Aliphatic Aldehydes Act as Taste Modulators through the Orally Expressed Calcium-Sensing Receptor CaSR” (Molecules, 2023).

How the values were obtained:
Type in all cases: cell-based
[1] = target: T1, calcium-sensing receptor CaSR (Homo sapiens, UniProt P41180); test: calcium mobilization assay in PEAKrapid cells transiently expressing human CaSR, with mock control
T1 sequence (P41180 20-1078): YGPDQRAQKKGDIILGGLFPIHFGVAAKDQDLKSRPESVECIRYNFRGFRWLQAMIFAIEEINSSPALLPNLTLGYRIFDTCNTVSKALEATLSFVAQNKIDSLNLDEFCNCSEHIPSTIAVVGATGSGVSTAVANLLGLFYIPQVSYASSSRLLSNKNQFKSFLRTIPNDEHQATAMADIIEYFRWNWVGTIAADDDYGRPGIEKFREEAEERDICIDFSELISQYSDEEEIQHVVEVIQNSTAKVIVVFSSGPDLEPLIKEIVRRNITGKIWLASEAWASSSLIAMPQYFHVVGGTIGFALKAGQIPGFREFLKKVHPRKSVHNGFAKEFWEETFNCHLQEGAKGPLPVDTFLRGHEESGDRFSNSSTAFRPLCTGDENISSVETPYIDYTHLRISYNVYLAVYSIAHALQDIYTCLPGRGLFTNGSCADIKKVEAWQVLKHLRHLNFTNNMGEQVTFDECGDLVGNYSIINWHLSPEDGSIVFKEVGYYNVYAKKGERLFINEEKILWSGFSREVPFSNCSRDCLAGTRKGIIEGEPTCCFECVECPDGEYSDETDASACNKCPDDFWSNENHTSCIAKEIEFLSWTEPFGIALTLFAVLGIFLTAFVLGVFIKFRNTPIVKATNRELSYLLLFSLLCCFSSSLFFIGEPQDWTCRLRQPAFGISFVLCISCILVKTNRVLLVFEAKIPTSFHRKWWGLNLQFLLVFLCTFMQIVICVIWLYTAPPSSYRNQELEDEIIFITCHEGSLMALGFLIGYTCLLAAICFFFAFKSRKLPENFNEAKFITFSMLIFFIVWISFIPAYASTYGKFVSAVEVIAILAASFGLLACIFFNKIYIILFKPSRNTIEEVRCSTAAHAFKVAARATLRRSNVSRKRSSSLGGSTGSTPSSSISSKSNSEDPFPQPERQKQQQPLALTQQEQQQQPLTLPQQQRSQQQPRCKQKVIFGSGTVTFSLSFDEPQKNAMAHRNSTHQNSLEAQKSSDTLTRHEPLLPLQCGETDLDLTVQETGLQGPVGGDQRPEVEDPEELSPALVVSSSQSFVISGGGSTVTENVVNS

[2] = target: T1, calcium-sensing receptor CaSR; test: as above; remark: listed apart in the source
[3] = target: T1, calcium-sensing receptor CaSR; test: calcium mobilization assay in PEAKrapid cells transiently expressing human CaSR; potentiation of CaCl2 response at […]

Structure (SMILES) | calcium mobilization assay in PEAKrapid cells transiently expressing human CaSR, [2] | further results
CC(C)CC=O [IVAH, isovaleraldehyde] | – | EC50 [1]: 681 µM
CCCC=O [butanal] | CaSR was activated by propionaldehyde (A,I), butanal (B,I) | –
CSCCC=O [MTN, methional] | – | calcium mobilization assay in PEAKrapid cells transiently expressing human CaSR, [3]: only methional activated CaSR, while neither of the methional analogues tested activated CaSR
CCC=O [propionaldehyde] | CaSR was activated by propionaldehyde (A,I) | –
CCC(C)C=O (centres unmarked) [2-methylbutylaldehyde] | CaSR was activated by propionaldehyde (A,I), butanal (B,I), isobutylaldehyde (C,I), 2-methylbutylaldehyde (D,I) | –
CCCCCC=O [hexanal] | 2-methylbutylaldehyde (D,I), pentanal (E,I), hexanal (F,I) | –
CCCCC=O [pentanal] | 2-methylbutylaldehyde (D,I), pentanal (E,I), hexanal (F,I) | –
CC(C)C=O [isobutylaldehyde] | CaSR was activated by propionaldehyde (A,I), butanal (B,I), isobutylaldehyde (C,I) | –
